Results taken from patent US7268160B2, “Remedies” (Takara Bio, Inc., priority 2000, dated 2007).

What was measured:
[1] = test system: NGF production in the L-M cells; assay: Enhancing activity for NGF production, Reference Example 1 method (24 hours culture, NGF enzyme immunoassay of culture medium); type: cell-based, murine; settings: for Enhancement Ratio (%): negative control = 100%
Protocol: L-M cells (ATCC CCL-1.2) from murine fibroblasts were suspended in an M199 medium (manufactured by ICN) containing 0.5% bactopeptone (manufactured by Gibco BRL) so as to have a concentration of 1.5×10^5 cells/mi. The suspension was put in a 96-well plate in an amount of 0.1 ml each well, and the cells were aseptically cultured. After culturing the cells for 3 days, the medium was removed therefrom, and exchanged with an M199 medium containing 0.5% bovine serum albumin (manufactured by Sigma). Caffeic acid (manufactured by Sigma, dimethyl suif oxide (DMSO) solution), a substance known to have enhancing activity for NGF production, was added to each well containing the cells, so as to have a final concentration of 0, 50, 100 or 200 μM, and the cells were cultured for 24 hours. One having a caffeic acid concentration of 0 μM was used as a negative control. In addition, the final concentration of DM50 in each well was adjusted to 0.1%. After the termination of the culture, the NGF concentration in the culture medium was determined by an enzyme immunoassay method (NGF Emax Immuno Assay System, manufactured by Promega). The degree of the enhancement for NGF production of caffeic acid at each added amount was expressed in percentage as the enhancement ratio (%) on the basis of the NGF concentration in the cell culture medium at each added amount, when the NGF concentration in the cell culture medium of the negative control was defined as 100%. The experiment was carried out twice, and an average value was taken. It was shown that the enhancing activity for NGF production of caffeic acid could be assayed by this method.
The enhancing activity for NGF production of the compound (13) (manufactured by Funakoshi) was assayed in the same manner as in Reference Example 1. The compound (13) was added so as to have a final concentration of 0, 0.5, 1, 2, 5, 10, 20 or 50 μM.
The enhancing activity for NGF production of a compound (14) (manufactured by Sigma) was assayed in the same manner as in Reference Example 1. The compound (14) was added so as to have a final concentration of 0, 50, 100 or 200 μM.
The enhancing activity for NGF production of a compound (15) (manufactured by Sigma) was assayed in the same manner as in Reference Example 1. The compound (15) was added so as to have a final concentration of 0, 12.5, 25 or 50 μM.
The enhancing activity for NGF production of a compound (16) (manufactured by Wako Pure Chemical Industries) was assayed in the same manner as in Reference Example 1. The compound (16) was added so as to have a final concentration of 0, 25, 50 or 100 μM.

SD rats = assay: Toxicity test in rats (Test Example 1); type: in vivo; settings: male SD rats
Protocol: Male SD rats were purchased from Nippon SLC, and used for an experiment from 6 week-old after preliminary rearing. A solution prepared by dissolving butein [compound (13)] in physiological saline was administered intraperitoneally, or a suspension prepared by suspending butein in 0.5% carboxymethylcellulose was given by forced oral administration, to the rats. The concentration of administration was 300 mg (N=3), 10 mg (N=3), 1 mg (N=3) or 0.1 mg (N=3) per 1 kg body weight in the case of intraperitoneal administration, and 1 g (N=2) and 0.1 g (N=3) per 1 kg body weight in the case of forced oral administration. In the control group, each of the solvents alone was administered in the same manner.

NGF = assay: Content of NGF in sciatic nerves of streptozotocin-induced diabetic rats; type: in vivo, SD rats; settings: 4 weeks
Protocol: Male SD rats were purchased from Nippon SLC, and used for an experiment at 5 weeks old after preliminary rearing. Streptozotocin (manufactured by Nakalai Tesque) was administered intraperitoneally to the rats at a dose of 100 mg/kg body weight to induce diabetes. The rats were divided into groups according to the blood sugar level after 5 days from the administration of streptozotocin. Next, a solution prepared by dissolving butein [compound (13)] in physiological saline was administered intraperitoneally to the rats at a dose of 100 μg per 1 kg body weight. In the control group, physiological saline alone was administered in the same manner. The rats were administered for consecutive days, and sciatic nerves (about 35 mg) were enucleated after 4 weeks from the beginning of administration. The enucleated sciatic nerves were homogenized, and NGF was extracted. The content of NGF was assayed by an enzyme immunoassay method (NGF Emax Immuno Assay System, manufactured by Promega).
The numerical figures in the table are expressed by an average value±standard error of 6 cases. In addition, the asterisk * means that the group has a significant difference at a significance level of 5% or less as compared to the control group according to Student-t test. […] As described above, it was clarified that the NGF production was enhanced by the administration of butein to a living body.

CDF1 mice = assay: Toxicity on oral administration to mice; type: in vivo; settings: oral administration to a mouse once at 1000 mg/kg
Text: Each of the compounds used in Example 16 was orally administered to mice in the same manner as in Test Example 1 described above.

[2] = test system: NGF production in the L-M cells; assay: Enhancement for NGF production by flavonols, Example 16 (24 hours culture); type: cell-based, rat; settings: for Enhancement of NGF production (in words): L-M cells; for Enhancement Ratio (%): negative control (distilled water) = 100%
Protocol: L-M cells (ATCC CCL-1.2) from […] fibroblasts were suspended in an M199 medium (manufactured by ICN) containing 0.5% bactopeptone (manufactured by Gibco BRL) so as to have a concentration of 1.5×10^5 cells/ml. The suspension was put in a 96-well plate in an amount of 0.1 ml each well, and the cells were aseptically cultured. After culturing the cells for 3 days, the medium was removed therefrom, and exchanged with an M199 medium containing 0.5% bovine serum albumin (manufactured by Sigma).
As the negative control, that with addition of distilled water was used. After the termination of the culture, the NGF concentration in the culture medium was assayed by an enzyme immunoassay method (NGF Emax Immuno Assay System, manufactured by Promega). The degree of the enhancement for NGF production at each added amount was expressed in percentage as the enhancement ratio (%) on the basis of the NGF concentration in the cell culture medium at each added amount when the NGF concentration in the cell culture medium of the negative control was defined as 100%. The experiment was carried out twice, and an average value was taken.
The enhancing activity for NGF production of myricitrin (manufactured by Funakoshi) was assayed in the same manner as in item (1) of Example 16. Myricitrin was added so as to have a final concentration of 0, 31.3, 62.5, 125 or 250 μM.
The enhancing activity for NGF production of quercitrin (manufactured by Sigma) was assayed in the same manner as in item (1) of Example 16. Quercitrin was added so as to have a final concentration of 0, 31.3, 62.5, 125 or 250 μM.

Compound | Enhancement of NGF production (in words) [2] | Enhancement Ratio (%) ([2]; added amount 31.3 μM) | Enhancement Ratio (%) ([2]; added amount 62.5 μM) | Enhancement Ratio (%) ([2]; added amount 125 μM) | Enhancement Ratio (%) ([2]; added amount 250 μM) | also measured
O=C(/C=C/c1ccc(O)c(O)c1)c1ccc(O)cc1O [Compound (13), Butein] | – | – | – | – | – | Enhancement of NGF production (in words) ([1]; L-M cells): enhanced NGF production in the L-M cells in a concentration-dependent manner; Enhancement Ratio (%) ([1]; added amount 0.5 μM): 120%; Enhancement Ratio (%) ([1]; added amount 1 μM): 462%; Enhancement Ratio (%) ([1]; added amount 2 μM): 1107%; Enhancement Ratio (%) ([1]; added amount 5 μM): 2100%; Enhancement Ratio (%) ([1]; added amount 10 μM): 3686%; Enhancement Ratio (%) ([1]; added amount 20 μM): 3927%; Enhancement Ratio (%) ([1]; added amount 50 μM): 1743%; Toxicity findings (death, general conditions, body weight, dissection) (SD rats; forced oral administration, 1 g and 0.1 g per 1 kg body weight): no cases of death, changes in the general conditions, suppression of the increase in the body weight or abnormal findings at the dissection were found; Toxicity findings (death, general conditions, body weight, dissection) (SD rats; intraperitoneal administration, 300 mg, 10 mg, 1 mg or 0.1 mg per 1 kg body weight): no cases of death, changes in the general conditions, suppression of the increase in the body weight or abnormal findings at the dissection were found; Content of NGF (pg/Sciatic Nerves) (NGF; 100 μg per 1 kg body weight intraperitoneally, consecutive days, streptozotocin diabetic rats, average ± standard error, N = 6, * significant at 5% vs control (119.2 ± 11.7)): 187.7 ± 26.4* pg/Sciatic Nerves; Content of NGF in the nerves vs control group (in words) (NGF; 100 μg per 1 kg intraperitoneally, diabetic rats): content of NGF in the nerves was increased; Cases of death (CDF1 mice): no cases of death
O=c1c(O)c(-c2cc(O)c(O)c(O)c2)oc2cc(O)cc(O)c12 [Myricetin, myricetin] | enhanced NGF production in the L-M cells in a concentration-dependent manner | – | – | – | – | –
C[C@H]1O[C@@H](Oc2c(-c3cc(O)c(O)c(O)c3)oc3cc(O)cc(O)c3c2=O)[C@@H](O)[C@@H](O)[C@@H]1O [Myricitrin, myricitrin] | enhanced NGF production in the L-M cells in a concentration-dependent manner | 105% | 159% | 294% | 304% | –
O=c1c(O)c(-c2ccc(O)c(O)c2)oc2cc(O)cc(O)c12 [Quercetin, quercetin] | enhanced NGF production in the L-M cells in a concentration-dependent manner | 122% | 108% | – | 219% | –
C[C@@H]1O[C@@H](Oc2c(-c3ccc(O)c(O)c3)oc3cc(O)cc(O)c3c2=O)[C@H](O)[C@H](O)[C@H]1O [Quercitrin, quercitrin] | enhanced NGF production in the L-M cells in a concentration-dependent manner | 122% | 140% | 193% | 207% | –
